Laboratory results reported in patent US8541460B2, “PDK-1/Akt signaling inhibitors” (The Ohio State University, priority 2003, dated 2013).

How the values were obtained:
UACC-62 = test: NCI DTP cell line screen (SRB), Melanoma; type: cell-based
MCF7 = test: NCI DTP cell line screen (SRB), Breast Cancer; type: cell-based, human; details: MCF7
Method: (§1) Screening of compounds 70 and 71 against several cancer cell lines The human tumor cell lines of the cancer screening panel are grown in RPMI 1640 medium containing 5% fetal bovine serum and 2 mM L-glutamine. For a typical screening experiment, cells are inoculated into 96 well microtiter plates in 100 μL at plating densities ranging from 5,000 to 40,000 cells/well depending on the doubling time of individual cell lines. After cell inoculation, the microtiter plates are incubated at 37° C., 5% CO2, 95% air and 100% relative humidity for 24 h prior to addition of experimental drugs.
(§2) After 24 h, two plates of each cell line are fixed in situ with TCA, to represent a measurement of the cell population for each cell line at the time of drug addition (Tz). Experimental drugs are solubilized in dimethyl sulfoxide at 400-fold the desired final maximum test concentration and stored frozen prior to use. At the time of drug addition, an aliquot of frozen concentrate is thawed and diluted to twice the desired final maximum test concentration with complete medium containing 50 μg/ml gentamicin. Additional four, 10-fold or ½ log serial dilutions are made to provide a total of five drug concentrations plus control. Aliquots of 100 μl of these different drug dilutions are added to the appropriate microtiter wells already containing 100 μl of medium, resulting in the required final drug concentrations.
(§3) Following drug addition, the plates are incubated for an additional 48 h at 37° C., 5% CO2, 95% air, and 100% relative humidity. For adherent cells, the assay is terminated by the addition of cold TCA. Cells are fixed in situ by the gentle addition of 50 μl of cold 50% (w/v) TCA (final concentration, 10% TCA) and incubated for 60 minutes at 4° C. The supernatant is discarded, and the plates are washed five times with tap water and air dried. Sulforhodamine B (SRB) solution (100 μl) at 0.4% (w/v) in 1% acetic acid is added to each well, and plates are incubated for 10 minutes at room temperature. After staining, unbound dye is removed by washing five times with 1% acetic acid and the plates are air dried. Bound stain is subsequently solubilized with 10 mM trizma base, and the absorbance is read on an automated plate reader at a wavelength of 515 nm. For suspension cells, the methodology is the same except that the assay is terminated by fixing settled cells at the bottom of the wells by gently adding 50 μl of 80% TCA (final concentration, 16% TCA). Using the seven absorbance measurements [time zero, (Tz), control growth, (C), and test growth in the presence of drug at the five concentration levels (Ti)], the percentage growth is calculated at each of the drug concentrations levels. Percentage growth inhibition is calculated as: [(Ti−Tz)/(C−Tz)]×100 for concentrations for which Ti>/=Tz [(Ti−Tz)/Tz]×100 for concentrations for which Ti<Tz
(§4) Three dose response parameters are calculated for each experimental agent. […] The drug concentration resulting in total growth inhibition (TGI) is calculated from Ti=Tz. […] Values are calculated for each of these three parameters if the level of activity is reached; however, if the effect is not reached or is exceeded, the value for that parameter is expressed as greater or less than the maximum or minimum concentration tested.
(§5) The methods described were used to test compounds 70 and 71 on a panel of sixty cell lines under a screening service provided by the Developmental Therapeutics Program at the National Institutes of Health. Shown in FIG. 1C are 1, RPMI-8226 leukemia cells; 2; NCI-H322M non-small cell lung cancer cells; 3, HT29 colon cancer cells; 4, U251 CNS cancer cells; 5, SK-MEL-28 melanoma cancer cells; 6, SK-OV-3 ovarian cancer cells; 7, RXF 393 renal cancer cells; 8, PC-3 prostate cancer cells; 9, MDA-MB-231 breast cancer cells.

MDA-MB-435 = test: NCI DTP cell line screen (SRB), Breast Cancer; type: cell-based, human
Method: as §1, §2, §3, §4, §5

HOP-92 = test: NCI DTP cell line screen (SRB), Non-Small Cell Lung Cancer; type: cell-based
phospho-473Ser Akt = test: Western blot of Akt and phospho-Akt in PC-3 cells; type: cell-based, human; details: 1 μM
Method: Immunoblotting. The general procedure for the Western blot analysis of Akt and phospho-Akt is described as follows. Cells were washed in PBS, resuspended in SDS sample buffer sonicated by an ultrasonic sonicator for 5 sec, and boiled for 5 min. After brief centrifugation, equivalent protein concentrations from the soluble fractions were resolved in 10% SDS-polyacrylamide gels on a Minigel apparatus, and transferred to a nitrocellulose membrane using a semi-dry transfer cell. The transblotted membrane was washed three times with TBS containing 0.05% Tween 20 (TBST). After blocking with TBST containing 5% nonfat milk for 60 min., the membrane was incubated with the primary antibody at 1:1,000 dilution in TBST-5% low fat milk at 4° C. for 12 h, and was then washed three times with TBST. The membrane was probed with goat anti-rabbit IgG-HRP conjugates (1:1,000) for 1 h at room temperature, and was washed with TBST three times. The immunoblots were visualized by enhanced chemiluminescence.

PC-3 = test: NCI DTP cell line screen (SRB), Prostate Cancer; type: cell-based
Method: as §1, §2, §3, §4, §5

CCRF-CEM = test: NCI DTP cell line screen (SRB), Leukemia; type: cell-based

For NCC(=O)Nc1ccc(-n2nc(C(F)(F)F)cc2-c2ccc3c(ccc4ccccc43)c2)cc1 [Compound 70, 2-Amino-N-{4-[5-(2-phenanthrenyl)-3-(trifluoromethyl)-1H-pyrazol-1-yl]-phenyl}-acetamide], the TGI (UACC-62) was 3.15E−06, the “Percent Growth” value (UACC-62; Log10 Concentration −4.0) was −46% and the “Percent Growth” value (UACC-62; Log10 Concentration −5.0) was −80%. For the same compound, the “Percent Growth” value (UACC-62; Log10 Concentration −6.0) was 79%, the “Percent Growth” value (UACC-62; Log10 Concentration −7.0) was 94% and the “Percent Growth” value (UACC-62; Log10 Concentration −8.0) was 105%. For the same compound, the “Percent Growth” value (MCF7; Log10 Concentration −4.0) was −44%, the “Percent Growth” value (MCF7; Log10 Concentration −5.0) was −57% and the “Percent Growth” value (MCF7; Log10 Concentration −6.0) was 43%. For the same compound, the “Percent Growth” value (MCF7; Log10 Concentration −7.0) was 89%, the “Percent Growth” value (MCF7; Log10 Concentration −8.0) was 91% and the TGI (MCF7; in M (unit assumed)) was 2.72E−06. The “Percent Growth” value (MDA-MB-435; Log10 Concentration −4.0) was −14%, the “Percent Growth” value (MDA-MB-435; Log10 Concentration −5.0) was −69% and the “Percent Growth” value (MDA-MB-435; Log10 Concentration −6.0) was 68%. For the same compound, the “Percent Growth” value (MDA-MB-435; Log10 Concentration −7.0) was 98%, the “Percent Growth” value (MDA-MB-435; Log10 Concentration −8.0) was 103% and the TGI (MDA-MB-435; in M (unit assumed)) was 3.14E−06. The TGI (HOP-92) was 3.07E−06, the “Percent Growth” value (HOP-92; Log10 Concentration −4.0) was −75% and the “Percent Growth” value (HOP-92; Log10 Concentration −5.0) was −91%. For the same compound, the “Percent Growth” value (HOP-92; Log10 Concentration −6.0) was 87%, the “Percent Growth” value (HOP-92; Log10 Concentration −7.0) was 89% and the “Percent Growth” value (HOP-92; Log10 Concentration −8.0) was 96%. The phospho-Akt level (phospho-473Ser Akt) was “substantial decrease in the phospho-Akt level”, the TGI (PC-3) was 2.38E−06 and the “Percent Growth” value (PC-3; Log10 Concentration −4.0) was −55%. The “Percent Growth” value (PC-3; Log10 Concentration −5.0) was −77%, the “Percent Growth” value (PC-3; Log10 Concentration −6.0) was 47% and the “Percent Growth” value (PC-3; Log10 Concentration −7.0) was 69%. The “Percent Growth” value (PC-3; Log10 Concentration −8.0) was 89%, the TGI (CCRF-CEM) was 2.49E−06 and the “Percent Growth” value (CCRF-CEM; Log10 Concentration −4.0) was −34%. The “Percent Growth” value (CCRF-CEM; Log10 Concentration −5.0) was −43%, the “Percent Growth” value (CCRF-CEM; Log10 Concentration −6.0) was 28% and the “Percent Growth” value (CCRF-CEM; Log10 Concentration −7.0) was 81%. The “Percent Growth” value (CCRF-CEM; Log10 Concentration −8.0) was 74%.
